# Assay results: ChEMBL document CHEMBL3885861, “Open TG-GATES”
# Organism: Rattus norvegicus
# Test: Open TG-GATES - Regimen: Single
# Assay type: toxicity, organism-based, Sprague-Dawley
# Set-up: regimen Single, gender Male, age 6 weeks
# Conditions: in vivo, po, 50 mg/kg, route gavage, dose level Low; for APTT / Bas / Eos / Fbg / Hb / Ht / Lym / MCH / MCHC / MCV / Mono / Neu / PT / Plat / RBC / Ret / WBC: tissue Blood; for KIDNEY_L / KIDNEY_R / KIDNEY_TOTAL: tissue Kidney; for LIVER: tissue Liver; for A/G / ALP / ALT / AST / BUN / CRE / Ca / Cl / DBIL / GLC / IP / K / LDH / Na / PL / RALB / TBIL / TC / TG / TP / gamma-GTP: tissue Plasma
compound,measurement,setting,value
CC(=O)Oc1cc(C(C)C)c(OCCN(C)C)cc1C [MOXISYLYTE],TERMINAL_BW,3 h,210.1 g
same,APTT,3 h,21.8 s
same,Bas,3 h,0%
same,Eos,3 h,1.2%
same,Fbg,3 h,298.6 mg/dL
same,Hb,3 h,13.1 g/dL
same,Ht,3 h,38.6%
same,Lym,3 h,80%
same,MCH,3 h,21 pg
same,MCHC,3 h,34%
same,MCV,3 h,61.9 fL
same,Mono,3 h,2.4%
same,Neu,3 h,15.8%
same,PT,3 h,16.3 s
same,Plat,3 h,122 x10_4/uL
same,RBC,3 h,624.4 x10_4/ul
same,Ret,3 h,8.5%
same,WBC,3 h,93.6 x10_2/uL
same,KIDNEY_L,3 h,0.9 g
same,KIDNEY_R,3 h,0.9 g
same,KIDNEY_TOTAL,3 h,1.9 g
same,LIVER,3 h,9.4 g
same,A/G,3 h,1.2
same,ALP,3 h,1650.4 IU/L
same,ALT,3 h,42.8 IU/L
same,AST,3 h,80.2 IU/L
same,BUN,3 h,13.8 mg/dL
same,CRE,3 h,0.1 mg/dL
same,Ca,3 h,10.8 mg/dL
same,Cl,3 h,107.6 meq/L
same,DBIL,3 h,0.002 mg/dL
same,GLC,3 h,180.2 mg/dL
same,IP,3 h,8.6 mg/dL
same,K,3 h,4.5 meq/L
same,LDH,3 h,254.2 IU/L
same,Na,3 h,142.4 meq/L
same,PL,3 h,134.8 mg/dL
same,RALB,3 h,3 g/dL
same,TBIL,3 h,0.018 mg/dL
same,TC,3 h,72.6 mg/dL
same,TG,3 h,70.2 mg/dL
same,TP,3 h,5.4 g/dL
same,gamma-GTP,3 h,1 IU/L
same,TERMINAL_BW,6 h,210.4 g
same,APTT,6 h,22.1 s
same,Bas,6 h,0%
same,Eos,6 h,0.8%
same,Fbg,6 h,309.8 mg/dL
same,Hb,6 h,13 g/dL
same,Ht,6 h,37.8%
same,Lym,6 h,77%
same,MCH,6 h,21.3 pg
same,MCHC,6 h,34.5%
same,MCV,6 h,61.7 fL
same,Mono,6 h,2.4%
same,Neu,6 h,18.8%
same,PT,6 h,15.9 s
same,Plat,6 h,116 x10_4/uL
same,RBC,6 h,612.6 x10_4/ul
same,Ret,6 h,8.4%
same,WBC,6 h,70 x10_2/uL
same,KIDNEY_L,6 h,0.9 g
same,KIDNEY_R,6 h,0.9 g
same,KIDNEY_TOTAL,6 h,1.9 g
same,LIVER,6 h,9 g
same,A/G,6 h,1.3
same,ALP,6 h,1379.6 IU/L
same,ALT,6 h,35.8 IU/L
same,AST,6 h,70.6 IU/L
same,BUN,6 h,11 mg/dL
same,CRE,6 h,0.1 mg/dL
same,Ca,6 h,10.6 mg/dL
same,Cl,6 h,107.4 meq/L
same,DBIL,6 h,0.004 mg/dL
same,GLC,6 h,181.4 mg/dL
same,IP,6 h,9.2 mg/dL
same,K,6 h,4.4 meq/L
same,LDH,6 h,189 IU/L
same,Na,6 h,141.4 meq/L
same,PL,6 h,146.8 mg/dL
same,RALB,6 h,3 g/dL
same,TBIL,6 h,0.028 mg/dL
same,TC,6 h,84.2 mg/dL
same,TG,6 h,74 mg/dL
same,TP,6 h,5.3 g/dL
same,gamma-GTP,6 h,1 IU/L
same,TERMINAL_BW,9 h,208.4 g
same,APTT,9 h,20.8 s
same,Bas,9 h,0%
same,Eos,9 h,0.4%
same,Fbg,9 h,309.8 mg/dL
same,Hb,9 h,13.3 g/dL
same,Ht,9 h,38.7%
same,Lym,9 h,83.4%
same,MCH,9 h,21.2 pg
same,MCHC,9 h,34.4%
same,MCV,9 h,61.8 fL
same,Mono,9 h,1.4%
same,Neu,9 h,14.2%
same,PT,9 h,15.8 s
same,Plat,9 h,122.4 x10_4/uL
same,RBC,9 h,627 x10_4/ul
same,Ret,9 h,8.1%
same,WBC,9 h,81 x10_2/uL
same,KIDNEY_L,9 h,0.9 g
same,KIDNEY_R,9 h,0.9 g
same,KIDNEY_TOTAL,9 h,1.8 g
same,LIVER,9 h,8.6 g
same,A/G,9 h,1.3
same,ALP,9 h,1432 IU/L
same,ALT,9 h,40.6 IU/L
same,AST,9 h,71.2 IU/L
same,BUN,9 h,12 mg/dL
same,CRE,9 h,0.1 mg/dL
same,Ca,9 h,10.6 mg/dL
same,Cl,9 h,108.2 meq/L
same,DBIL,9 h,0.012 mg/dL
same,GLC,9 h,182.6 mg/dL
same,IP,9 h,9.4 mg/dL
same,K,9 h,4.3 meq/L
same,LDH,9 h,242.6 IU/L
same,Na,9 h,143 meq/L
same,PL,9 h,144.8 mg/dL
same,RALB,9 h,3.1 g/dL
same,TBIL,9 h,0.018 mg/dL
same,TC,9 h,82.6 mg/dL
same,TG,9 h,84.2 mg/dL
same,TP,9 h,5.6 g/dL
same,gamma-GTP,9 h,1.2 IU/L
same,TERMINAL_BW,24 h,221.4 g
same,APTT,24 h,19.7 s
same,Bas,24 h,0%
same,Eos,24 h,1%
same,Fbg,24 h,309 mg/dL
same,Hb,24 h,13.2 g/dL
same,Ht,24 h,38.3%
same,Lym,24 h,79.4%
same,MCH,24 h,21.2 pg
same,MCHC,24 h,34.5%
same,MCV,24 h,61.5 fL
same,Mono,24 h,2.2%
same,Neu,24 h,16.8%
same,PT,24 h,15.8 s
same,Plat,24 h,122.9 x10_4/uL
same,RBC,24 h,622.4 x10_4/ul
same,Ret,24 h,8.5%
same,WBC,24 h,94.4 x10_2/uL
same,KIDNEY_L,24 h,0.9 g
same,KIDNEY_R,24 h,0.9 g
same,KIDNEY_TOTAL,24 h,1.9 g
same,LIVER,24 h,10.7 g
same,A/G,24 h,1.2
same,ALP,24 h,1498.2 IU/L
same,ALT,24 h,52.4 IU/L
same,AST,24 h,89.6 IU/L
same,BUN,24 h,18.4 mg/dL
same,CRE,24 h,0.1 mg/dL
same,Ca,24 h,11.1 mg/dL
same,Cl,24 h,107 meq/L
same,DBIL,24 h,0 mg/dL
same,GLC,24 h,181.8 mg/dL
same,IP,24 h,7.5 mg/dL
same,K,24 h,4.4 meq/L
same,LDH,24 h,271 IU/L
same,Na,24 h,142 meq/L
same,PL,24 h,163.4 mg/dL
same,RALB,24 h,3.1 g/dL
same,TBIL,24 h,0.002 mg/dL
same,TC,24 h,84.8 mg/dL
same,TG,24 h,117 mg/dL
same,TP,24 h,5.8 g/dL
same,gamma-GTP,24 h,1.2 IU/L
